Assay results published in patent publication US9834542B2, “LXR modulators” (BRISTOL-MYERS SQUIBB COMPANY, priority 2013, dated 2017).
pEC50: −log10 of the molar value.

Biological target: T1, LXRβ (Homo sapiens, UniProt P55055)
T1 construct: Co-transfection expression plasmids, comprising full-length LXRα (pCMX-h LXRα[…] or LXRβ (pCMX-hLXRβ)); expressed in transfected cells; host or cells: CV-1 African Green Monkey Kidney Cells
T1 sequence (P55055 1-460): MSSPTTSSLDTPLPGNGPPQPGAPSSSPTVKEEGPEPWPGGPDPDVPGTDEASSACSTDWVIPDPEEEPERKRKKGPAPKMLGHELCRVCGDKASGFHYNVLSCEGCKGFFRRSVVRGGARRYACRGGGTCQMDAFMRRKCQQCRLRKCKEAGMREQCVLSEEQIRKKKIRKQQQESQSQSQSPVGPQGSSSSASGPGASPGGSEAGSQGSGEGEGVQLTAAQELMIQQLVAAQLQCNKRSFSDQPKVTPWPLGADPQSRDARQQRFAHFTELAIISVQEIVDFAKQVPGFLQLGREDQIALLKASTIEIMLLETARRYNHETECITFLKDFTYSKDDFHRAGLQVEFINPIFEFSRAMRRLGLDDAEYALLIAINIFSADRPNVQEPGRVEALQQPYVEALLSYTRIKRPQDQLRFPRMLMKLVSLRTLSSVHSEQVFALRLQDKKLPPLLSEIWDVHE
T1 sequence (P19793 1-462 partner): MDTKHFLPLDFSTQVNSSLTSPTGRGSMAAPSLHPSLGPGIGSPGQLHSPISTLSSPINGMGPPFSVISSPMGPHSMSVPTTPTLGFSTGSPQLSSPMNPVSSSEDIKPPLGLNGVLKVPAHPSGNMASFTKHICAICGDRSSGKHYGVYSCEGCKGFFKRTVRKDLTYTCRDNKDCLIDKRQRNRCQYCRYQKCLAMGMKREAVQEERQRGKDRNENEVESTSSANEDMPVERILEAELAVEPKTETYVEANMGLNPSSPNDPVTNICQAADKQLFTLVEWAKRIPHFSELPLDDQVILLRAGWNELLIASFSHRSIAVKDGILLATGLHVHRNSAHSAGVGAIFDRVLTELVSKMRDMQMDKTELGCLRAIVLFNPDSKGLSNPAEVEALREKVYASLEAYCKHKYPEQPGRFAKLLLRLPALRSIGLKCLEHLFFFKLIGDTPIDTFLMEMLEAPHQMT
Assay: Co-transfection assay (LXRE luciferase reporter), LXRβ
Type: cell-based
Conditions: for pEC50: CV-1 cells transfected with pCMX-hLXRβ and LXREx1-Tk-Luciferase, 20 hours incubation; for Emax: LXRβ co-transfection, relative to high control 1-(2,4-difluorobenzyl)-2-oxo-6-(4-phenoxyphenyl)-4-(trifluoromethyl)-1,2-dihydropyridine-3-carbonitrile, read-out: % Efficacy
Summary of the method: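 Cell-based LXRβ agonism measured as LXRE-luciferase induction in transiently transfected CV-1 cells after 20 h treatment. Potency is the curve-fit EC50; efficacy is expressed as percent of a full-agonist control's maximal response.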

SMILES | pEC50 | Emax
Cc1nc(C(F)(F)F)cn1-c1ccc(-c2cccc(S(C)(=O)=O)c2)cc1-n1nncc1CC1CCC(C)CC1 (stereo not shown) [Example 127, 5-[(4-methylcyclohexyl)methyl]-1-{3′-(methylsulfonyl)-4-[2-methyl-4-(trifluoromethyl)-1H-imidazol-1-yl]biphenyl-3-yl}-1H-1,2,3-triazole] | 6.11 | 55%
Cc1nc(C(F)(F)F)cn1-c1ccc(-c2cccc(S(C)(=O)=O)c2)cc1-c1nc(C(F)(F)F)cn1-c1ccc(Cl)nc1 [Example 642, 2-chloro-5-(2-(4-(2-methyl-4-(trifluoromethyl)-1H-imidazol-1-yl)-3′-(methylsulfonyl)biphenyl-3-yl)-4-(trifluoromethyl)-1H-imidazol-1-yl)pyridine] | 5.94 | 32%
Cc1nc(C(F)(F)F)cn1-c1ccc(-c2cccc(S(C)(=O)=O)c2)cc1-c1ccnn1-c1ccc(Cl)cc1 [Example 286, 1-(4-chlorophenyl)-5-{3′-(methylsulfonyl)-4-[2-methyl-4-(trifluoromethyl)-1H-imidazol-1-yl]biphenyl-3-yl}-1H-pyrazole] | 6.82 | 84%
Cc1nc(-c2cc(-c3ccc(C)c(S(C)(=O)=O)c3)ccc2-n2cc(C(F)(F)F)nc2C)c(-c2cc(F)c(OC(F)F)c(F)c2)o1 [Example 470, 5-(4-(difluoromethoxy)-3,5-difluorophenyl)-2-methyl-4-(4′-methyl-4-(2-methyl-4-(trifluoromethyl)-1H-imidazol-1-yl)-3′-(methylsulfonyl)biphenyl-3-yl)oxazole] | 6.96 | 56%
Cc1nc(-c2cc(-c3cccc(S(C)(=O)=O)c3)ccc2-n2cc(C(F)(F)F)nc2C)c(-c2ccc(N(C)C)cc2)o1 [Example 500, N,N-dimethyl-4-(2-methyl-4-(4-(2-methyl-4-(trifluoromethyl)-1H-imidazol-1-yl)-3′-(methylsulfonyl)biphenyl-3-yl)oxazol-5-yl)aniline] | 7.07 | 96%
Cc1nc(C(F)(F)F)cn1-c1ccc(-c2cccc(S(C)(=O)=O)c2)cc1-n1nncc1-c1ccc(Cl)c(OC(F)(F)F)c1 [Example 35, 5-{4-chloro-3-[(trifluoromethyl)oxy]phenyl}-1-{3′-(methylsulfonyl)-4-[2-methyl-4-(trifluoromethyl)-1H-imidazol-1-yl]biphenyl-3-yl}-1H-1,2,3-triazole] | 6.18 | 68%
Cc1nc(-c2ccc3c(c2)OC(F)(F)O3)c(-c2cc(-c3ccc(CO)c(S(C)(=O)=O)c3)ccc2-n2cc(C(F)(F)F)nc2C)o1 [Example 616, (3′-(4-(2,2-difluorobenzo[d][1,3]dioxol-5-yl)-2-methyloxazol-5-yl)-4′-(2-methyl-4-(trifluoromethyl)-1H-imidazol-1-yl)-3-(methylsulfonyl)-[1,1′-biphenyl]-4-yl)methanol] | 7.35 | 96%
Cc1nc(C(F)(F)F)cn1-c1ccc(-c2cccc(S(C)(=O)=O)c2)cc1-n1nncc1-c1cccc(OC(F)F)c1 [Example 37, 5-{3-[(difluoromethyl)oxy]phenyl}-1-{3′-(methylsulfonyl)-4-[2-methyl-4-(trifluoromethyl)-1H-imidazol-1-yl]biphenyl-3-yl}-1H-1,2,3-triazole] | 6.12 | 96%

Continued by rising pEC50, values first:

pEC50 | Emax | SMILES
5.64 | 85% | Cc1nc(C(=O)C(C)C)cn1-c1ccc(-c2cc(F)c(CO)c(S(C)(=O)=O)c2)cc1-n1nncc1-c1ccc(OC(F)(F)F)cc1 [Example 235, 1-(1-(3′-fluoro-4′-(hydroxymethyl)-5′-(methylsulfonyl)-3-(5-(4-(trifluoromethoxy)phenyl)-1H-1,2,3-triazol-1-yl)-[1,1′-biphenyl]-4-yl)-2-methyl-1H-imidazol-4-yl)-2-methylpropan-1-one]
6.24 | 40% | COc1cc(OC(F)(F)F)ccc1-c1nc(C)oc1-c1cc(-c2cccc(S(C)(=O)=O)c2)ccc1-n1cc(C(F)(F)F)nc1C [Example 637, 4-(2-methoxy-4-(trifluoromethoxy)phenyl)-2-methyl-5-(4-(2-methyl-4-(trifluoromethyl)-1H-imidazol-1-yl)-3′-(methylsulfonyl)-[1,1′-biphenyl]-3-yl)oxazole]
6.39 | 111% | Cc1nc(C(F)(F)F)cn1-c1ccc(-c2cccc(C(C)(C)C(N)=O)c2)cc1-c1cnnn1-c1ccc(OC(F)(F)F)cc1 [Example 241, 2-methyl-2-{4′-[2-methyl-4-(trifluoromethyl)-1H-imidazol-1-yl]-3′-(1-{4-[(trifluoromethyl)oxy]phenyl}-1H-1,2,3-triazol-5-yl)biphenyl-3-yl}propanamide]
6.40 | 78% | Cc1nc(C(F)(F)F)cn1-c1c(F)cc(-c2ccc(CO)c(S(C)(=O)=O)c2)cc1-n1nncc1-c1ccc(Cl)cc1 [Example 210, {3′-[5-(4-chlorophenyl)-1H-1,2,3-triazol-1-yl]-5′-fluoro-3-(methylsulfonyl)-4′-[2-methyl-4-(trifluoromethyl)-1H-imidazol-1-yl]biphenyl-4-yl}methanol]
6.50 | 71% | Cc1nc(C(F)(F)F)cn1-c1ccc(-c2ccc(CO)c(S(C)(=O)=O)c2)cc1-c1ccnn1-c1ccc(Cl)nc1 [Example 298, (3′-(1-(6-chloropyridin-3-yl)-1H-pyrazol-5-yl)-4′-(2-methyl-4-(trifluoromethyl)-1H-imidazol-1-yl)-3-(methylsulfonyl)biphenyl-4-yl)methanol]
6.66 | 76% | Cc1nc(-c2cc(-c3cc(F)c(CO)c(S(C)(=O)=O)c3)ccc2-n2cc(C(F)(F)F)nc2C)c(-c2cncc(Cl)c2)o1 [Example 421, (3′-(5-(5-chloropyridin-3-yl)-2-methyloxazol-4-yl)-3-fluoro-4′-(2-methyl-4-(trifluoromethyl)-1H-imidazol-1-yl)-5-(methylsulfonyl)biphenyl-4-yl)methanol]
7.14 | 64% | Cc1nc(-c2cc(-c3cccc(S(C)(=O)=O)c3)ccc2-n2cc(C(F)(F)F)nc2C)c(-c2ccc(OC(F)F)c(OC3CC3)c2)o1 [Example 386, 5-(3-cyclopropoxy-4-(difluoromethoxy)phenyl)-2-methyl-4-(4-(2-methyl-4-(trifluoromethyl)-1H-imidazol-1-yl)-3′-(methylsulfonyl)biphenyl-3-yl)oxazole]
7.21 | 76% | Cc1nc(-c2cc(-c3cccc(S(C)(=O)=O)c3)ccc2-n2cc(C(F)(F)F)nc2C)c(-c2ccc(F)c(Cl)c2)o1 [Example 510, 5-(3-chloro-4-fluorophenyl)-2-methyl-4-(4-(2-methyl-4-(trifluoromethyl)-1H-imidazol-1-yl)-3′-(methylsulfonyl)biphenyl-3-yl)oxazole]
7.72 | 73% | Cc1nc(-c2cc(-c3cc(F)c(CO)c(S(C)(=O)=O)c3)ccc2-n2cc(C(F)(F)F)nc2C)c(-c2ccc(OC(F)F)c(OC3CC3)c2)o1 [Example 387, (3′-(5-(3-cyclopropoxy-4-(difluoromethoxy)phenyl)-2-methyloxazol-4-yl)-3-fluoro-4′-(2-methyl-4-(trifluoromethyl)-1H-imidazol-1-yl)-5-(methylsulfonyl)biphenyl-4-yl)methanol]
